The structures appear in SMILES notation.

The values below come from patent US8987195B2 (priority 2012, dated 2015).

One experiment deals with HCV genotype 1b replicon. The experiment is described as follows: HCV replicon assay, genotype 1b replicon EC50. Type of experiment: cell-based, Hepatitis C virus. To be noted: Hepatitis C virus, genotype 1b replicon; HCOOH salt; read-out: EC50 [gt-1b]. Summed up: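 Cells harbouring a stable replicon are grown under G418 selection, then plated with test compound in G418-free medium for 24-48 hours. After washing and lysis, RNA or luciferase signal is measured and expressed as percent of DMSO control to give EC50.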

For experiment [1], the target named is HCV NS3/4A protease genotype 1b (Hepatitis C virus genotype 1b, UniProt P26663). The experiment is described as follows: HCV NS3/4A protease time-resolved fluorescence (TRF) assay, Ki against genotype 1b. Type of experiment: biochemical. To be noted: IC50 [gt-1b] (nM), NS3/4A genotype 1b, enzyme 0.2 nM; HCOOH salt. Summed up: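 Ki values come from IC50 fits corrected for substrate concentration and KM. The time-resolved fluorescence protease reaction used 25 nM peptide substrate, 2.5 h, room temperature, pH 7.5 HEPES buffer, after 30 min enzyme–inhibitor preincubation.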
HCV NS3/4A protease genotype 1b, sequence (P26663 1027-1657): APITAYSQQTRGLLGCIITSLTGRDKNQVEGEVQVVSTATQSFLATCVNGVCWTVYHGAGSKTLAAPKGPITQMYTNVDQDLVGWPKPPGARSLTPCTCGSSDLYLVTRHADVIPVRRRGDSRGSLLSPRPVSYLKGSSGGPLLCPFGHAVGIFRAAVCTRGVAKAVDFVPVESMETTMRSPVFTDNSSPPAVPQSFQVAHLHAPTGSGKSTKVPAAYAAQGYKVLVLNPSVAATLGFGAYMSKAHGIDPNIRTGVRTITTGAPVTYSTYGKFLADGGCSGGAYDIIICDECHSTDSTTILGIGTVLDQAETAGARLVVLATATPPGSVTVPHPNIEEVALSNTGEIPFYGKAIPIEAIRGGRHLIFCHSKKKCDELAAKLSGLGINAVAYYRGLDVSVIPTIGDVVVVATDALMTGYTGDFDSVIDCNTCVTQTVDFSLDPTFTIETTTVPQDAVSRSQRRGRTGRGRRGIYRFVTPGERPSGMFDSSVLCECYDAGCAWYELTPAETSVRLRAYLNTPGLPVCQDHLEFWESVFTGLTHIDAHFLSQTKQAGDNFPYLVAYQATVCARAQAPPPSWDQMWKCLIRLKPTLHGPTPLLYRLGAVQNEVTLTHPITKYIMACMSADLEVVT
HCV NS3/4A protease genotype 1b, sequence (P26663 1658-1711): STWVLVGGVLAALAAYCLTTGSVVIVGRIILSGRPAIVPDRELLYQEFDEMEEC

Broadly, the EC50 is the concentration that produces a half-maximal response. One may read the IC50 as the concentration that inhibits the measured activity by half. Consider `COc1ccc2c3c(c(C4CC4)nc2c1)O[C@]1(CC3)C[C@H]2C(=O)N[C@]3(C(=O)NS(=O)(=O)C4(C)CC4)C[C@H]3/C=C\CCCCC[C@H](NC(=O)CC3CCCC3)C(=O)N2C1` [Example 270, (2R,6S,12Z,13aS,14aR,16aS)-6-[(cyclopentylacetyl)amino]-5′-cyclopropyl-8′-methoxy-N-[(1-methylcyclopropyl)sulfonyl]-5,16-dioxo-1,1′,2′,6,7,8,9,10,11,13a,14,15,16,16a-tetradecahydrospiro[cyclopropa[e]pyrrolo[1,2-a][1,4]diazacyclopentadecine-2,3′-pyrano[2,3-c]quinoline]-14a(5H)-carboxamide], for which the concentration for a half-maximal effect (EC50) in the experiment on HCV genotype 1b replicon is 24.2 nM. Moreover, in experiment [1], the concentration for half-maximal inhibition (IC50) turned out to be 0.044 nM.

For the molecule `CCCOC(=O)N[C@H]1CCCCC/C=C\[C@@H]2C[C@@]2(C(=O)NS(=O)(=O)C2(C)CC2)NC(=O)[C@@H]2C[C@]3(CCc4c(c(C5CC5)nc5cc(OC)ccc45)O3)CN2C1=O` [Example 271, propyl [(2R,6S,12Z,13aS,14aR,16aS)-5′-cyclopropyl-8′-methoxy-14a-{[(1-methylcyclopropyl)sulfonyl]carbamoyl}-5,16-dioxo-1,1′,2′,5,6,7,8,9,10,11,13a,14,14a,15,16,16a-hexadecahydrospiro[cyclopropa[e]pyrrolo[1,2-a][1,4]diazacyclopentadecine-2,3′-pyrano[2,3-c]quinolin]-6-yl]carbamate], the concentration giving a half-maximal response (EC50) with HCV genotype 1b replicon is 5.9 nM. Moreover, in experiment [1], the IC50 came to 0.031 nM.

Regarding `CCCCOC(=O)N[C@H]1CCCCC/C=C\[C@@H]2C[C@@]2(C(=O)NS(=O)(=O)C2(C)CC2)NC(=O)[C@@H]2C[C@]3(CCc4c(c(C5CC5)nc5cc(OC)ccc45)O3)CN2C1=O` [Example 272, butyl [(2R,6S,12Z,13aS,14aR,16aS)-5′-cyclopropyl-8′-methoxy-14a-{[(1-methylcyclopropyl)sulfonyl]carbamoyl}-5,16-dioxo-1,1′,2′,5,6,7,8,9,10,11,13a,14,14a,15,16,16a-hexadecahydrospiro[cyclopropa[e]pyrrolo[1,2-a][1,4]diazacyclopentadecine-2,3′-pyrano[2,3-c]quinolin]-6-yl]carbamate], the EC50 with HCV genotype 1b replicon came to 11.2 nM. For the same molecule, the IC50 in experiment [1] amounted to 0.116 nM.

As for `CCCCCOC(=O)N[C@H]1CCCCC/C=C\[C@@H]2C[C@@]2(C(=O)NS(=O)(=O)C2(C)CC2)NC(=O)[C@@H]2C[C@]3(CCc4c(c(C5CC5)nc5cc(OC)ccc45)O3)CN2C1=O` [Example 273, pentyl [(2R,6S,12Z,13aS,14aR,16aS)-5′-cyclopropyl-8′-methoxy-14a-{[(1-methylcyclopropyl)sulfonyl]carbamoyl}-5,16-dioxo-1,1′,2′,5,6,7,8,9,10,11,13a,14,14a,15,16,16a-hexadecahydrospiro[cyclopropa[e]pyrrolo[1,2-a][1,4]diazacyclopentadecine-2,3′-pyrano[2,3-c]quinolin]-6-yl]carbamate], the EC50 in the experiment on HCV genotype 1b replicon stood at 163 nM. Moreover, in experiment [1], the half-maximal inhibitory concentration (IC50) was 1.13 nM.

Take `COc1ccc2c3c(c(C4CC4)nc2c1)O[C@]1(CC3)C[C@H]2C(=O)N[C@]3(C(=O)NS(=O)(=O)C4(C)CC4)C[C@H]3/C=C\CCCCC[C@H](NC(=O)Oc3ccc(C)cc3)C(=O)N2C1` [Example 274, 4-methylphenyl [(2R,6S,12Z,13aS,14aR,16aS)-5′-cyclopropyl-8′-methoxy-14a-{[(1-methylcyclopropyl)sulfonyl]carbamoyl}-5,16-dioxo-1,1′,2′,5,6,7,8,9,10,11,13a,14,14a,15,16,16a-hexadecahydrospiro[cyclopropa[e]pyrrolo[1,2-a][1,4]diazacyclopentadecine-2,3′-pyrano[2,3-c]quinolin]-6-yl]carbamate]: the EC50 with HCV genotype 1b replicon came out at 28.3 nM. Besides, the IC50 in experiment [1] came to 0.832 nM.
